We go through 9 molecules from patent US20230124764A1, “LACTOBACILLUS HARBINENSIS AND APPLICATION THEREOF” (priority 2018, published 2023).

For test [1], the system named is Lacticaseibacillus casei-01. Briefly: Antibiotic sensitivity, MIC on antibacterial MRS agar plates. To be noted: for MIC: Lacticaseibacillus. Format: cell-based. As to the method: (§1) According to the criteria for determining bacterial resistance (2012 edition) stipulated by the European Food Safety Agency, antibiotics including ampicillin, vancomycin, gentamicin, kanamycin, streptomycin, erythromycin, clindamycin, tetracycline and chloramphenicol were used to prepare antibacterial stock solutions with a concentration of 5120 μg/mL. They were diluted to the required concentration by a diluent preparation method before use, and were added to the corresponding medium according with certain proportion. 9.0 mL of the modified MRS agar media were added into large test tubes. After sterilizing at 121° C. for 15 min, they were placed in a water bath (50° C.) at a constant temperature for later use. 1.0 mL of the antibacterial diluents were pipetted into the large test tubes, followed by vortexing and mixing immediately. The diluents were then poured into a sterile petri dish, and bacteriostatic plates with a certain drug concentration (μg/mL) were prepared after solidification. For each antibiotics, 8 concentration gradient antibacterial plates were prepared according to a ½ dilution method. […] At the same time, a blank plate without inoculation was used as a control. […] 3 parallel experiments were conducted. The lactic acid bacteria susceptibility result was shown in Table 1 determined according to the relevant standards: […] The second step was the preparation of antibacterial plates: antibiotics including ampicillin, vancomycin, gentamicin, kanamycin, streptomycin, erythromycin, clindamycin, tetracycline and chloramphenicol were used to prepare antibacterial stock solutions at a concentration of […]. The solutions were diluted to the required concentration before use according to a diluent preparation method. 1.0 mL of the antibacterial diluents were pipetted into large test tubes with 9.0 mL of modified MRS agar media, followed by vortexing and mixing immediately. Then, they were poured on sterile plates. After solidification, antibacterial plates with a certain antibiotic concentration (m/mL) were obtained. At the same time, a control plate without antibiotic was prepared. […] At the same time, a blank plate without inoculation was used as a control.

Test [2] has as its system Schleiferilactobacillus harbinensis M1. Described as above. Conditions: for MIC: Schleiferilactobacillus harbinensis. The format is cell-based. As to the method: as §1
The mark [3] stands for this setting: CASEI01, against L. casei-01, agar plates, 37° C., 16-20 hours, read-out: MIC value.
Where [4] appears, read: against S. harbinensis M1, agar plates, 37° C., 16-20 hours, read-out: MIC value.

Values after ≈ are worked out from the molar mass of the structure shown. Like-named read-outs stand apart in the source and are kept apart here.

The term MIC denotes the smallest concentration in the dilution series that meets the test's criterion for growth inhibition.

Consider `CC1(C)S[C@@H]2[C@H](NC(=O)[C@H](N)c3ccccc3)C(=O)N2[C@H]1C(=O)O` [ampicillin], for which the MIC in test [1] (setting [3]) and in test [2] (setting [4]) was 1 mg/L (≈ 2.86 µM) throughout.

As to `O=C(N[C@H](CO)[C@H](O)c1ccc([N+](=O)[O-])cc1)C(Cl)Cl` [chloramphenicol], the MIC in test [1] (setting [3]) is 4 mg/L (≈ 12.4 µM); in test [2] (setting [4]) it was 2 mg/L (≈ 6.19 µM).

`CCC[C@@H]1C[C@@H](C(=O)N[C@@H]([C@H]2O[C@H](SC)[C@H](O)[C@@H](O)[C@H]2O)[C@H](C)Cl)N(C)C1` [clindamycin]: the results for the MIC in test [1] (setting [3]) and in test [2] (setting [4]) were 0.125 mg/L (≈ 0.294 µM) and 0.5 mg/L (≈ 1.18 µM), respectively.

Consider `CC[C@H]1OC(=O)[C@H](C)[C@@H](O[C@H]2C[C@@](C)(OC)[C@@H](O)[C@H](C)O2)[C@H](C)[C@@H](O[C@@H]2O[C@H](C)C[C@H](N(C)C)[C@H]2O)[C@](C)(O)C[C@@H](C)C(=O)[C@H](C)[C@@H](O)[C@]1(C)O` [erythromycin], for which the minimal inhibitory concentration (MIC) in test [1] (setting [3]) and in test [2] (setting [4]) was 0.5 mg/L (≈ 0.681 µM) in each case.

On to `NC[C@H]1O[C@H](O[C@H]2[C@H](O)[C@@H](O[C@H]3O[C@H](CO)[C@@H](O)[C@H](N)[C@H]3O)[C@H](N)C[C@@H]2N)[C@H](O)[C@@H](O)[C@@H]1O` [kanamycin], for which the MIC in test [1] (setting [3]) and in test [2] (setting [4]) was 16 mg/L (≈ 33 µM) in each case.

In the case of `[H]/N=C(/N)N[C@H]1[C@H](O)[C@@H](O)[C@H](O[C@@H]2O[C@@H](C)[C@](O)(C=O)[C@H]2O[C@@H]2O[C@@H](CO)[C@H](O)[C@@H](O)[C@@H]2NC)[C@@H](N/C(N)=N\[H])[C@@H]1O` [streptomycin], the MIC came to 16 mg/L (≈ 27.5 µM) in test [1] (setting [3]) and 8 mg/L (≈ 13.8 µM) in test [2] (setting [4]).

As for `CN(C)[C@@H]1C(O)=C(C(N)=O)C(=O)[C@@]2(O)C(O)=C3C(=O)c4c(O)cccc4[C@@](C)(O)[C@H]3C[C@@H]12` [tetracycline], the MIC in test [1] (setting [3]) and in test [2] (setting [4]) was 2 mg/L (≈ 4.5 µM) each time.

Consider `CN[C@H](CC(C)C)C(=O)N[C@H]1C(=O)N[C@@H](CC(N)=O)C(=O)N[C@H]2C(=O)N[C@H]3C(=O)N[C@H](C(=O)N[C@H](C(=O)O)c4cc(O)cc(O)c4-c4cc3ccc4O)[C@H](O)c3ccc(c(Cl)c3)Oc3cc2cc(c3O[C@@H]2O[C@H](CO)[C@@H](O)[C@H](O)[C@H]2O[C@H]2C[C@](C)(N)[C@H](O)[C@H](C)O2)Oc2ccc(cc2Cl)[C@H]1O` [vancomycin], for which the MIC in test [1] (CASEI01, read-out: MIC value) was 4 mg/L (≈ 2.76 µM); in test [2] (M1, read-out: MIC value), 2 mg/L (≈ 1.38 µM).

Turning to gentamicin, the MIC value in test [1] (against L. casei-01, agar plates, 37° C., 16-20 hours) amounted to 16 mg/L; in test [2] (against S. harbinensis M1, agar plates, 37° C., 16-20 hours), 16 mg/L.
